According to paper PMC9321894, “Design and Anticancer Properties of New Water-Soluble Ruthenium–Cyclopentadienyl Complexes” (Pharmaceuticals, 2022):
Read-outs that look alike come from different tables or passages of the source. Marks after values point to notes of the source that are not given here.

Columns and labels:
[1] = Solubility in water; assay type: physicochemical; conditions: in presence of air, 25 °C
[2] = Stability in water in presence of air (UV-vis, 1H and 31P NMR); assay type: physicochemical; conditions: for Stability in water, Time / Stability in water, Time (Days): in presence of air, 25 °C, time without hydrolysis
Description: The stability of all the complexes in water was evaluated by ^31P NMR and UV–visible spectroscopies. Generally, a 5 mm NMR tube was charged in the air with the 10 mg of each complex and D2O (0.8 mL). ^1H NMR and ^31P NMR were monitored for four days to evaluate if there was any decomposition product. Decomposition/instability of the compound can be assessed by the disappearance of the NMR signals and/or by the appearance of new signals that could not be assigned to the known complex, beyond the appearance of free mTPPMS phosphine signals. Any eventual changes in the charge transfer bands between ruthenium and ligands were followed by UV–visible in the 300–900 nm range.

[3] = tested on: A2780 ovarian cancer cells; test: MTT cytotoxicity assay, A2780; assay type: cell-based, human; conditions: A2780, 72 h, mean ± SD n = 3
Description: (§1) The cytotoxic activity of all complexes was screened against A2780 (ovarian, Sigma-Aldrich, Lisboa, Portugal), MDAMB231 (breast, triple negative, ATCC), and HT29 (colon, ATCC) human cancer cells. Cells were grown in RPMI 1640 (A2780) or DMEM containing GlutaMax-I (MDAMB231), or McCoy’s (HT29) supplemented with 10% FBS and 1% penicillin/streptomycin (Invitrogen, Lisboa, Portugal). All cell lines were kept in a CO2 incubator (Heraeus, Hanau, Germany) with 5% CO2 at 37 °C in a humidified atmosphere. Cell viability was measured using the colorimetric MTT (3-(4,5-dimethylthiazol-2-yl)-2,5-diphenyltetrazolium bromide) assay. For the assays, cells were seeded in 200 μL of complete medium in 96-well plates and incubated at 37 °C for 24 h prior to complex treatment to allow cell adherence. The stock solutions in water (20 mM) of the complexes were freshly prepared and used for sequential dilutions in medium within the concentration range of 10^−10–10^−4 M. Cisplatin was also included in this study as a positive control. After careful removal of the medium, […] of a serial dilution of compounds in fresh medium was added to the cells, and incubation was carried out for 72 h at 37 °C. At the end of the treatment, the medium was discarded, and the cells were incubated with […] of an MTT solution in PBS (0.5 mg mL^−1). After 3 h incubation, medium was removed, and DMSO was added to solubilize the purple formazan crystals formed. The absorbance at 570 nm was measured using a plate spectrophotometer (Power Wave Xs, Bio-Tek, Winooski, VT, USA). Each experiment was repeated at least three times and each concentration tested in at least six replicates. The IC50 values were calculated from dose–response curves analyzed with the GraphPad Prism software (version 5.0).

[4] = tested on: MDAMB231 triple-negative breast cancer cells; test: MTT cytotoxicity assay, MDAMB231; assay type: cell-based, human; conditions: MDAMB231, 72 h; for IC50: mean ± SD n = 3
Description: as §1

[5] = tested on: HT29 colon cancer cells; test: MTT cytotoxicity assay, HT29; assay type: cell-based, human; conditions: HT29, 72 h; for IC50: mean ± SD n = 3
Description: as §1

[6] = tested on: A2780 ovarian cancer cells; set-up: method as in PMID 21450266, PMID 20200702, PMID 20422091; conditions: A2780, 72 h; cited from earlier work
[7] = tested on: MDAMB231 triple-negative breast cancer cells; set-up: method as in PMID 21450266, PMID 20200702, PMID 20422091; conditions: MDAMB231, 72 h; cited from earlier work
[8] = tested on: HT29 colon cancer cells; set-up: method as in PMID 21450266, PMID 20200702, PMID 20422091; conditions: HT29, 72 h; cited from earlier work
[9] = n-Octanol/water partition coefficient, shake-flask method; assay type: physicochemical; conditions: room temperature
Description: The lipophilicity of the complexes was measured by the shake-flask method. Distilled water and n-octanol were mixed vigorously for 24 h at 25 °C, to promote solvent saturation in both phases, before the experiments. […] Aliquots of stock solutions were equilibrated with octanol for 4 h in a mechanical shaker. The phase ratio was 2 mL/2 mL (water/n-octanol). The aqueous and octanol layers were carefully separated (by centrifugation at 5000 rpm for 10 min), and UV–vis absorption spectra of the compounds were registered in both phases. The concentration for each sample was determined using the calibration curve. Triplicate experiments have been performed for each complex and the averages were calculated.

COc1ccc(-n2ccnc2)cc1.O=S(=O)([O-])C(F)(F)F.O=S(=O)([O-])c1cccc(P(c2ccccc2)c2ccccc2)c1.O=S(=O)([O-])c1cccc(P(c2ccccc2)c2ccccc2)c1.[Na+].[Na+].[Ru+2].c1cc[cH-]c1 [Compound 5, [RuCp(mTPPMSNa)2(4-MpIm)][CF3SO3]]
S(H2O) [1]: 28.8 mg/mL | S(H2O) ([1]; value in brackets): 0.029 M | Stability in water, Time [2]: 0.12 days

O=S(=O)([O-])C(F)(F)F.O=S(=O)([O-])c1cccc(P(c2ccccc2)c2ccccc2)c1.O=S(=O)([O-])c1cccc(P(c2ccccc2)c2ccccc2)c1.[Na+].[Na+].[Ru+2].c1c[nH]cn1.c1cc[cH-]c1 [Compound 1, [RuCp(mTPPMSNa)2(ImH)][CF3SO3]]
S(H2O) [1]: 21.4 mg/mL

[RuCp(mTPPMSNa)2(1-BuIm)][CF3SO3] [Compound 3]
S(H2O) [1]: 42.8 mg/mL | S(H2O) ([1]; value in brackets): 0.043 M | Stability in water, Time [2]: 0.12 days

[RuCp(mTPPMSNa)(pbt)][CF3SO3] [Compound 8]
S(H2O) [1]: 20.0 mg/mL | S(H2O) ([1]; value in brackets): 0.02 M | Stability in water by NMR (in words) ([2]; D2O, 4 days, UV–vis bands decrease due to precipitation): remained intact without the formation of new species | Stability in water, Time (Days) [2]: >4 ^[b,c] Days | IC50 [3]: 0.2 ± 0.08 µM | IC50 [4]: 25.4 ± 5 µM | IC50 [5]: 11.3 ± 2.4 µM

N.N.[Cl][Pt][Cl] [CisPt, Cisplatin]
IC50 [6]: 1.9 ± 0.1 µM | IC50 [7]: 39 ± 5 µM | IC50 [8]: 7 ± 2 µM

[RuCp(mTPPMSNa)2(1-BI)][CF3SO3] [Compound 2]
S(H2O) [1]: 38.6 mg/mL | S(H2O) ([1]; value in brackets): 0.039 M | Stability in water, Time [2]: 0.25 days

NCCCn1ccnc1.O=S(=O)([O-])C(F)(F)F.O=S(=O)([O-])c1cccc(P(c2ccccc2)c2ccccc2)c1.O=S(=O)([O-])c1cccc(P(c2ccccc2)c2ccccc2)c1.[Na+].[Na+].[Ru+2].c1cc[cH-]c1 [Compound 4, [RuCp(mTPPMSNa)2(3-ApIm)][CF3SO3]]
S(H2O) [1]: 48.6 mg/mL | S(H2O) ([1]; value in brackets): 0.049 M | Time stable in water ([2]; aqueous solution): 24 h | Stability in water, Time [2]: 1 days | Log Po/w [9]: 4.43 ± 0.03

[RuCp(mTPPMSNa)(dpk)][CF3SO3] [Compound 7]
S(H2O) [1]: 19.3 mg/mL | S(H2O) ([1]; value in brackets): 0.019 M | Changes in the UV–vis spectra in aqueous solution ([2]; over 4 days at 37 °C): insignificant | Stability in water, Time (Days) [2]: >4 ^[b] Days | Log Po/w [9]: 5.95 ± 0.07 | IC50 [3]: 0.45 ± 0.3 µM | Cytotoxicity (in words) [4]: not cytotoxic | IC50 [4]: > 100 µM | Cytotoxicity (in words) [5]: not cytotoxic | IC50 [5]: > 100 µM
